Inhibition data for 15 molecules are collected here from PubChem BioAssay AID652228 (The Scripps Research Institute Molecular Screening Center, 2013).

The source made the active and inactive calls.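 Rule for the calls: active = protein phosphatase 1 activity cut by at least 70% at 50 µM; inactive = inhibition below 70%.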

The target of the assay is Serine/threonine-protein phosphatase PP1-alpha catalytic subunit (Homo sapiens) (UniProt P62136). Description: PP1alpha phosphatase inhibitors, histone substrate – biochemical, radiolabel, single concentration, powder samples, late-stage follow-up (AID 652228). The settings on record: purified PP1alpha, 33P-phosphohistone dephosphorylation, scintillation; at 50 µM; stronger effect = higher value.
Sequence of Serine/threonine-protein phosphatase PP1-alpha catalytic subunit (Homo sapiens) (P62136 whole entry, looked up): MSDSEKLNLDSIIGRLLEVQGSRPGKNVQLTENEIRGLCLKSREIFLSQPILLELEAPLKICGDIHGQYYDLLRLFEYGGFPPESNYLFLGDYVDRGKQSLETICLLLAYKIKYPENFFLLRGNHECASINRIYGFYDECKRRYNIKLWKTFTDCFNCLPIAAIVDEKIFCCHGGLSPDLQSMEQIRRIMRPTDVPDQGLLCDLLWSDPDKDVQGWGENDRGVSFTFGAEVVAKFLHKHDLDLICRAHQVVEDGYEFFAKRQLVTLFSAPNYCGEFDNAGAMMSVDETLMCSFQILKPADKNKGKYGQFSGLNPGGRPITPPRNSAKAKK

For `Oc1c(C(c2ccccn2)N2CCN(c3ccccc3F)CC2)cc(Cl)c2cccnc12` (stereo not given), the inhibition – broadly, the change of the read-out against control, counted positive when it falls – was found to be 35.7%.
For the molecule `CN1CCN(C(c2ccccn2)c2cc(Cl)ccc2O)CC1` (stereo not given), the inhibition is 2.44% (inactive).
The same measure for `Oc1c(C(c2ccccn2)N2CCC(Cc3ccccc3)CC2)cc(Cl)c2cccnc12` (stereo not given): 57.4%.
Consider `Oc1c(C(c2ccccn2)N2CCNCC2)cc(Cl)c2cccnc12` (stereo not given), for which the inhibition is 59%.
The same measure for `CN1CCN(C(c2ccncc2)c2cc(Cl)c3cccnc3c2O)CC1` (stereo not given): 4.17% (inactive); for `CC1CCN(C(c2ccccn2)c2cc(Cl)c3cccnc3c2O)CC1` (stereo not given): 43.2%; for `CN1CCN(C(c2ccccc2)c2cc(Cl)c3cccnc3c2O)CC1` (stereo not given): 4.84% (inactive).
As for `Oc1c(CN2CCN(c3ccccn3)CC2)cc(Cl)c2cccnc12`, the figure is 12.6% (inactive); as for `CC(C)(C)OC(=O)N1CCN(C(c2ccccn2)c2cc(Cl)c3cccnc3c2O)CC1` (stereo not given), 49.1%.
The same measure for `CN1CCN(C(c2cccnc2)c2cc(Cl)c3cccnc3c2O)CC1` (stereo not given): 10% (inactive); for `CN1CCN(C(c2ccccn2)c2cc(Cl)c3cccnc3c2O)CC1` (stereo not given): -38.1% (inactive).
For the molecule `CCN1CCN(C(c2ccccn2)c2cc(Cl)c3cccnc3c2O)CC1` (stereo not given), the inhibition is -51.6% (inactive).
As for `CN1CCN(C(c2ccccn2)c2cc(Cl)c3ccccc3c2O)CC1` (stereo not given), the figure is 5.68% (inactive).
The same measure for `Oc1c(CN2CCN(c3ccccc3)CC2)cc(Cl)c2cccnc12`: 18.5% (inactive).
As for `CCOC(c1ccccn1)c1cc(Cl)c2cccnc2c1O` (stereo not given), the figure is 15.6% (inactive).
